Several values for one entry are separate records, joined by “and”; a condition that tells them apart may be missing. Identical values can stand only once. Inconclusive results and toxic doses are left out.
Test system: BDF1 mice, P388 leukemia ip, median survival T/C
Test: NCI In Vivo Anticancer Drug Screen. Data for tumor model P388 Leukemia (intraperitoneal) in B6D2F1 (BDF1) mice
Details: endpoint: median survival time, higher = longer survival
Method in brief: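 In tumour-bearing mice, survival after compound treatment is set against the vehicle group and given as a quotient.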

`COC(=O)[C@@]12OC[C@]34[C@H]([C@@H](O)[C@@H]1O)[C@@]1(C)CC(=O)C(O)=C(C)[C@@H]1C[C@H]3OC(=O)[C@H](OC(=O)/C=C(\C)C(C)C)[C@@H]24` was tested, and the T/C (dose: 0.03 mg/kg/injection, schedule: Q01DX009 (ip), vehicle: saline + alcohol) was 151 % of control, the T/C (dose: 0.03 mg/kg/injection, schedule: Q01DX009 (ip), vehicle: saline) was 155 % of control and the T/C (dose: 0.05 mg/kg/injection, schedule: Q01DX005 (iv), vehicle: saline + alcohol) was 100 % of control. The T/C (dose: 0.05 mg/kg/injection, schedule: Q01DX009 (ip), vehicle: saline + alcohol) was 150 % of control, the T/C (dose: 0.06 mg/kg/injection, schedule: Q01DX009 (ip), vehicle: other) was 153 % of control and the T/C (dose: 0.06 mg/kg/injection, schedule: Q01DX009 (ip), vehicle: saline) was 170 % of control. For the same molecule, the T/C (dose: 0.06 mg/kg/injection, schedule: Q01DX009 (sc), vehicle: saline + alcohol) was 100 % of control, the T/C (dose: 0.06 mg/kg/injection, schedule: Q03HX024 (ip), vehicle: other) was 155 % of control and the T/C (dose: 0.06 mg/kg/injection, schedule: Q03HX024 (ip), vehicle: saline + alcohol) was 152 % of control and 153 % of control. The T/C (dose: 0.1 mg/kg/injection, schedule: Q01DX005 (iv), vehicle: saline + alcohol) was 100 % of control, the T/C (dose: 0.1 mg/kg/injection, schedule: Q01DX009 (ip), vehicle: saline + alcohol) was 158 % of control and the T/C (dose: 0.12 mg/kg/injection, schedule: Q01DX009 (ip), vehicle: other) was 177 % of control. For the same molecule, the T/C (dose: 0.12 mg/kg/injection, schedule: Q01DX009 (ip), vehicle: saline + alcohol) was 158 % of control, the T/C (dose: 0.12 mg/kg/injection, schedule: Q01DX009 (ip), vehicle: saline with Tween-80) was 151 % of control and the T/C (dose: 0.12 mg/kg/injection, schedule: Q01DX009 (ip), vehicle: saline) was 180 % of control. For the same molecule, the T/C (dose: 0.12 mg/kg/injection, schedule: Q03HX024 (ip), vehicle: other) was 166 % of control, the T/C (dose: 0.12 mg/kg/injection, schedule: Q03HX024 (ip), vehicle: saline + alcohol) was 157 % of control and the T/C (dose: 0.12 mg/kg/injection, schedule: Q03HX024 (ip), vehicle: saline with Tween-80) was 150 % of control. The T/C (dose: 0.13 mg/kg/injection, schedule: Q01DX009 (ip), vehicle: saline + alcohol) was 158 % of control and 164 % of control and 173 % of control, the T/C (dose: 0.13 mg/kg/injection, schedule: Q01DX009 (ip), vehicle: saline with Tween-80) was 161 % of control and the T/C (dose: 0.13 mg/kg/injection, schedule: Q01DX009 (sc), vehicle: saline + alcohol) was 108 % of control. For the same molecule, the T/C (dose: 0.13 mg/kg/injection, schedule: Q03HX016 (ip), vehicle: saline + alcohol) was 152 % of control, the T/C (dose: 0.13 mg/kg/injection, schedule: Q03HX024 (ip), vehicle: saline + alcohol) was 159 % of control and the T/C (dose: 0.2 mg/kg/injection, schedule: Q01DX005 (iv), vehicle: saline + alcohol) was 100 % of control. The T/C (dose: 0.2 mg/kg/injection, schedule: Q01DX009 (ip), vehicle: saline + alcohol) was 173 % of control, the T/C (dose: 0.25 mg/kg/injection, schedule: Q01DX009 (ip), vehicle: other) was 171 % of control and the T/C (dose: 0.25 mg/kg/injection, schedule: Q01DX009 (ip), vehicle: saline with Tween-80) was 183 % of control. For the same molecule, the T/C (dose: 0.25 mg/kg/injection, schedule: Q01DX009 (sc), vehicle: saline + alcohol) was 108 % of control, the T/C (dose: 0.25 mg/kg/injection, schedule: Q03HX016 (ip), vehicle: saline + alcohol) was 165 % of control and the T/C (dose: 0.25 mg/kg/injection, schedule: Q03HX024 (ip), vehicle: saline with Tween-80) was 169 % of control. The T/C (dose: 0.25 mg/kg/injection, schedule: Q04DX003 (ip), vehicle: saline + alcohol) was 122 % of control, the T/C (dose: 0.25 mg/kg/injection, schedule: Q04DX003 (ip), vehicle: saline with Tween-80) was 120 % of control and the T/C (dose: 0.4 mg/kg/injection, schedule: Q01DX005 (iv), vehicle: saline + alcohol) was 107 % of control. The T/C (dose: 0.4 mg/kg/injection, schedule: Q01DX009 (ip), vehicle: saline + alcohol) was 185 % of control, the T/C (dose: 0.44 mg/kg/injection, schedule: Q01DX009 (ip), vehicle: saline with Tween-80) was 186 % of control and the T/C (dose: 0.5 mg/kg/injection, schedule: Q01DX009 (ip), vehicle: other) was 177 % of control. For the same molecule, the T/C (dose: 0.5 mg/kg/injection, schedule: Q01DX009 (ip), vehicle: saline with Tween-80) was 175 % of control, the T/C (dose: 0.5 mg/kg/injection, schedule: Q01DX009 (ip), vehicle: saline) was 150 % of control and the T/C (dose: 0.5 mg/kg/injection, schedule: Q01DX009 (oral), vehicle: saline + alcohol) was 101 % of control and 110 % of control. The T/C (dose: 0.5 mg/kg/injection, schedule: Q01DX009 (sc), vehicle: saline + alcohol) was 116 % of control, the T/C (dose: 0.5 mg/kg/injection, schedule: Q04DX003 (ip), vehicle: saline + alcohol) was 120 % of control and the T/C (dose: 0.5 mg/kg/injection, schedule: Q04DX003 (ip), vehicle: saline with Tween-80) was 117 % of control.

— PubChem BioAssay AID328 (DTP/NCI, 2004)
